Data as given in patent publication US20260297060A1, “COMPOUNDS FOR THE DEGRADATION OF MUTANT BRAF” (C4 THERAPEUTICS, INC., priority 2023, published 2026).
Read-outs that look alike come from different tables or passages of the source.

What was measured:
A375-NRAS^Q61K cells = test: CTGlo Cell Viability Assay, A375-NRAS^Q61K (A375.11) cells, 96 hours; format: cell-based, human; conditions: A375.11 (A375-NRAS^Q61K) cells
Protocol: Compounds of this invention were tested for their effect on the viability of A375-NRAS^Q61K cells by quantification of ATP using the CellTiter-Glo® 2.0 Cell Viability Assay (Catalog No. G9243, Promega, Madison, WI, USA). This assay produces a luminescent signal in the presence of ATP, which is indicative of metabolically active cells, making the luminescence readout proportional to the number of viable cells.
A375-NRAS^Q61K cells (harboring BRAF homozygous V600E mutation and NRAS homozygous Q61K mutation) were purchased from ATCC (Catalog No. CRL-1619IG-2, Manassas, VA, USA). A375-NRAS^Q61K cells (also referred to here as A375.11) were maintained at 37° C. in an atmosphere of 5% CO2 in Dulbecco's modified Eagle Medium (DMEM) with high glucose (Catalog No. 11965092), supplemented with 10% fetal bovine serum (FBS; Catalog No. 10437036), and 10 mM HEPES (Catalog No. 15630130), all obtained from Thermofisher Scientific (Waltham, MA, USA). Cell culture flasks and 384-well microplates were acquired from VWR (Radnor, PA, USA).
Test compounds were prepared by dissolving neat compounds in DMSO (Catalog No. D8418, Sigma-Aldrich, Inc., St. Louis, MO, USA) to generate 10 mM stock solutions, which were serially diluted (half log) in DMSO to generate an 11-point dose series (1000× final treatment concentration) in a 384-Well Low Dead Volume Microplate (Catalog No. LP-0200, Labcyte, San Jose, CA, USA). Using the Echo 550 Acoustic Liquid Handler (Labcyte), 50 nL of serially diluted compound solutions were dispensed in duplicate to 384-well TC-treated microplates (Catalog No. 3571, Corning, Glendale, CA, USA) and 50 nL of DMSO was dispensed to control wells. A375-NRAS^Q61K cells were resuspended in growth media and added to 384-well plates containing a […] of compounds in duplicate (maximum 10 μM concentration for final treatment) at a density of 250 cells/well in 50 μl. Cells were also plated to a 384-well plate with no compound treatment, to which CellTiter-Glo® reagent was added and luminescence was read right after plating to act as a baseline signal at time of plating (To). Plates treated with compound were then spun briefly, and cells were incubated with compound at 37° C. for 96 hours.
After 96 hours compound treatment, CellTiter-Glo® reagent was added to the cells at 25 μl per well and luminescence was read out on the PHERAstar plate reader (BMG Labtech, Ortenberg, Germany). Cells treated with DMSO only (no test compound treatment) were used as the negative control (N). DMSO treated cells with no CellTiter-Glo® reagent added were used as the background or positive control (P). Viability was determined by subtracting out the average background signal (P) and normalized to the average untreated signal (N) set at 100%.
Data were analyzed with a 4-parameter logistic fit to generate sigmoidal dose-response curves. The half-maximal inhibition of cell growth (GI50) is the concentration at which the fitted curve crosses 50%. The Emax, or maximum effect of each compound, represents the lowest % viability achieved following compound treatment.

BRAF V600E = molecular target: T1, BRAF V600E (Homo sapiens, UniProt P15056+Q96SW2, V600E); test: BRAF V600E HiBiT Degradation Assay; format: cell-based
T1 construct: knock-in of the HiBiT tag to the endogenous BRAF V600E locus; host or cells: A375.10 (A375 clonal line, CRISPR HiBiT knock-in at the endogenous BRAF V600E locus)
T1 sequence (P15056 whole entry V600E): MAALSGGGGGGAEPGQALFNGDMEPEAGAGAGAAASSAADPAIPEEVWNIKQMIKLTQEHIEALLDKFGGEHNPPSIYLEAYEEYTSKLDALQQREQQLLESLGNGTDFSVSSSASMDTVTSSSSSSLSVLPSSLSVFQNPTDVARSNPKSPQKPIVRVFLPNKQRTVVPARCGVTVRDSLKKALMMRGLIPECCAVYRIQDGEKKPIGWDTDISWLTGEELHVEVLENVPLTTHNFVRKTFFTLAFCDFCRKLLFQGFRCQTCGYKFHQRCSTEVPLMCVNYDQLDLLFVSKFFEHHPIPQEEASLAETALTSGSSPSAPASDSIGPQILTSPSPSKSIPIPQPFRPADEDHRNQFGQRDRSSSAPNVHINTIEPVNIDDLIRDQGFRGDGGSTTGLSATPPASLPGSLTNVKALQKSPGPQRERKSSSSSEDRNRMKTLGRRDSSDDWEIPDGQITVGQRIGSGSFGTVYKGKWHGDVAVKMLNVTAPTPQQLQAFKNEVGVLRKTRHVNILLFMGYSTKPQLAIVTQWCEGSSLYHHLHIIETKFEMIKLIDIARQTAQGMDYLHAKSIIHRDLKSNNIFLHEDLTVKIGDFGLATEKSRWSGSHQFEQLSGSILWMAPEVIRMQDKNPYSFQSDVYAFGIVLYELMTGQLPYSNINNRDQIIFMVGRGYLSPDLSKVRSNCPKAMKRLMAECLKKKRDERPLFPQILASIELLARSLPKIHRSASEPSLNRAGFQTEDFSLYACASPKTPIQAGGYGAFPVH
T1 sequence (Q96SW2 whole entry): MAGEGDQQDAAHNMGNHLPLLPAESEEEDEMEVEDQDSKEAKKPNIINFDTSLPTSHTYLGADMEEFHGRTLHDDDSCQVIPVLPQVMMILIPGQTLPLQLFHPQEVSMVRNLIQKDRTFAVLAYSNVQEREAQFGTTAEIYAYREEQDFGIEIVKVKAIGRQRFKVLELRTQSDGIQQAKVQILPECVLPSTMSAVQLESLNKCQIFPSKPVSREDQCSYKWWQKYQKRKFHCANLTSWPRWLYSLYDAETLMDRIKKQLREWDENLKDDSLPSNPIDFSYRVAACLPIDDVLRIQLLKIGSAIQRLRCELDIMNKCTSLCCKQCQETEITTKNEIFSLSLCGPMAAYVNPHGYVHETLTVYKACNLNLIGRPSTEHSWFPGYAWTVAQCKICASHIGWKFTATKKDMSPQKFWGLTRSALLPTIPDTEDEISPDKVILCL
T1 sequence (Q16531 whole entry partner): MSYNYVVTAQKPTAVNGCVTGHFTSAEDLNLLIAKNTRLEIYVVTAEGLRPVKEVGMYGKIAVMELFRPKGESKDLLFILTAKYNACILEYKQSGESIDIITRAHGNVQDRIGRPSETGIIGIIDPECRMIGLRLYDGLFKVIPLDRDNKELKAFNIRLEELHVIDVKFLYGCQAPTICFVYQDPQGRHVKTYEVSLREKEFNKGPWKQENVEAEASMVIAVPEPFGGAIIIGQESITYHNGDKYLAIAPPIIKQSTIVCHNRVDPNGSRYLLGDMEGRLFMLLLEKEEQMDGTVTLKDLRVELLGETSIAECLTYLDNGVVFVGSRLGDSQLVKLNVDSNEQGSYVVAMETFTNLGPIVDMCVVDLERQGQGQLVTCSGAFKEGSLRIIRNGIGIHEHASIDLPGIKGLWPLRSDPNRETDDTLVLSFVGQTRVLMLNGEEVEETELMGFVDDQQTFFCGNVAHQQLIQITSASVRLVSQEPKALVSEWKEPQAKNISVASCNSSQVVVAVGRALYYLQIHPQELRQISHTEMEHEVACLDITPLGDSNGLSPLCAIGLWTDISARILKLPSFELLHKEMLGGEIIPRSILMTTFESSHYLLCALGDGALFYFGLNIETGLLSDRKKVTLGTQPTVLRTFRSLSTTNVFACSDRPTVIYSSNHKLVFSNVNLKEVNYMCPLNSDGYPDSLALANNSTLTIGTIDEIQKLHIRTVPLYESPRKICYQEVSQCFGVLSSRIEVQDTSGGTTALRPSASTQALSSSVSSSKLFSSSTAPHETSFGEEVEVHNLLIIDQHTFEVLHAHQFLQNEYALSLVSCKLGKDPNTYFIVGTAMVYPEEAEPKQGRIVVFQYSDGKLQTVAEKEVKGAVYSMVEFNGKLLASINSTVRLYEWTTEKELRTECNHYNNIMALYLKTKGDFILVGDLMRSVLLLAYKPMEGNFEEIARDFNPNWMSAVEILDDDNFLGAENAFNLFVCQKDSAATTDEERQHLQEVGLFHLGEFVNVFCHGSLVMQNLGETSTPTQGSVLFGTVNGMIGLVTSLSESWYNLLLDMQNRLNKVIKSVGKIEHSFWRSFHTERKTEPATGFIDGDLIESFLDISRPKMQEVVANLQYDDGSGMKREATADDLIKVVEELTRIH
Protocol: Compounds of this invention were tested for degradation of mutant BRAF V600E using the HiBiT assay, a luminescence-based assay for quantification of cellular protein levels using the Nano-Glo® HiBiT Lytic Detection System (Catalog No. N3050, Promega, Madison, WI USA). This assay utilizes the HiBiT tag on a protein of interest, which creates a luminescent signal in the presence of a complementing peptide and its substrate, the quantification of which is proportional to the amount of HiBiT-tagged protein in the cell.
The cell line A375, which is homozygous for the BRAF V600E mutation, was purchased from ATCC (Catalog No. CRL-1619, Manassas, VA, USA). A375 cells were engineered to express HiBiT tagged BRAF V600E by CRISPR knock-in of the HiBiT tag to the endogenous BRAF V600E locus, followed by selection of a clonal population containing the appropriate knock-in (referred to here as cell line A375.10). A375.10 cells were maintained at 37° C. in an atmosphere of 5% CO2 in Dulbecco's modified Eagle Medium (DMEM) with high glucose (Catalog No. 11965092), supplemented with 10% fetal bovine serum (FBS; Catalog No. 10437036), and 10 mM HEPES (Catalog No. 15630130), all obtained from Thermofisher Scientific (Waltham, MA, USA). Cell culture flasks and 384-well microplates were acquired from VWR (Radnor, PA, USA).
Test compounds were prepared by dissolving neat compounds in DMSO (Catalog No. D8418, Sigma-Aldrich, Inc., St. Louis, MO, USA) to generate 10 mM stock solutions, which were serially diluted (half log) in DMSO to generate an 11-point dose series (1000× final treatment concentration) in a 384-Well Low Dead Volume Microplate (Catalog No. LP-0200, Labcyte, San Jose, CA, USA). Using the Echo 550 Acoustic Liquid Handler (Labcyte), 30 nL of serially diluted compound solutions were dispensed in duplicate to 384-well TC-treated microplates (Catalog No. 3571, Corning, Glendale, CA, USA) and 30 nL of DMSO was dispensed to control wells. A375.10 cells resuspended in growth media without phenol red (Catalog No. 21063-029, Thermofisher Scientific) were then added to 384-well plates containing the 11-point dose series of compounds in duplicate (maximum 10 μM concentration for final treatment) at a density of 12,000 cells/well in 30 μl. Plates were then spun briefly, and cells were incubated with compound at 37° C. for 2 hours, 6 hours, or 24 hours.
Following the appropriate treatment time, Nano-Glo® HiBiT Lytic Assay reagents were added to the cells per the manufacturer's instructions by adding 30 μl of reagent per well, and the luminescence signal was acquired by plate reader. Cells treated with DMSO only (no test compound treatment) were used as the negative control (N). Media only (no cells added) with Nano-Glo reagent addition was used as the background or positive control (P). The percent response of compound treated samples were calculated by subtracting out the background signal (P) and normalizing to the DMSO control (N) as follows.
% Response=100×(Treated Signal−Average (P))/(Average (N)−Average (P)).
Data were analyzed with a 4-parameter logistic fit to generate sigmoidal dose-response curves. The DC50 is the concentration of compound at which 50% of the cellular BRAF V600E has been degraded. The Emax, or maximum effect of each compound, represents the amount of residual protein remaining in the cell following compound treatment. The IP, or inflection point of the dose-response curve, is the concentration of compound at which 50% of the observed degradation response is achieved.
The experiment was conducted at least once for each compound. If the experiment was conducted multiple times, the data shown in the table is the average of the two or more experiments.

[1] = A375.10 cells, BRAF V600E, 2 hours, inflection point, read-out: HiBiT-Degradation A375.10 BRAF 2 hours IP
[2] = A375.10 cells, BRAF V600E, 2 hours, read-out: HiBiT-Degradation A375.10 BRAF 2 hours DC50
[3] = A375.10 cells, BRAF V600E, 2 hours, residual protein remaining

Row | GI50 (A375-NRAS^Q61K cells; Homo sapiens, 96 h) [nM] | DC50 (BRAF V600E; [1]) [nM] | DC50 (BRAF V600E; [2]) [nM] | Emax (BRAF V600E; A375.10 cells, BRAF V600E, 2 hours, residual protein remaining, read-out: HiBiT-Degradation A375.10 BRAF 2 hours Emax) [%] | GI50 (A375-NRAS^Q61K cells) [nM] | HiBiT-Degradation A375.10 BRAF 2 hours Emax (BRAF V600E; [3]) | HiBiT-Degradation A375.10 BRAF 2 hours Emax (BRAF V600E) | DC50 (BRAF V600E; A375.10 cells, BRAF V600E, 6 hours, inflection point, read-out: HiBiT-Degradation A375.10 BRAF 6 hours IP) [nM] | DC50 (BRAF V600E; A375.10 cells, BRAF V600E, 6 hours, read-out: HiBiT-Degradation A375.10 BRAF 6 hours DC50) [nM] | HiBiT-Degradation A375.10 BRAF 6 hours Emax (BRAF V600E; A375.10 cells, BRAF V600E, 6 hours, residual protein remaining) | HiBiT-Degradation A375.10 BRAF 24 hours Emax (BRAF V600E; A375.10 cells, HiBiT, BRAF V600E, 24 hours) | DC50 (BRAF V600E; A375.10 cells, HiBiT, BRAF V600E, 24 hours, read-out: HiBiT-Degradation A375.10 BRAF 24 hours DC50) [nM] | DC50 (BRAF V600E; A375.10 cells, HiBiT, BRAF V600E, 24 hours, read-out: HiBiT-Degradation A375.10 BRAF 24 hours IP) [nM] | Compound | Emax (A375-NRAS^Q61K cells; Homo sapiens, 96 h, lowest % viability achieved) [%] | CTGlo A375.11 96 hours Emax (A375-NRAS^Q61K cells; lowest % viability achieved)
1 | > 10000 | < 1000 | < 1000 | 50 to 90 | – | – | – | – | – | – | – | – | – | CCN(C)S(=O)(=O)Nc1ccc(F)c(Oc2ccc3ncn([C@@H]4CCC5(CCN(C6CCC(c7ccc(NC8CCC(=O)NC8=O)cc7F)CC6)CC5)C4)c(=O)c3c2)c1C#N (single isomer, unassigned) [Compound 22] | 50 to 90 | –
2 | – | < 1000 | 1000 to 10000 | – | < 1000 | ** (<90% and >50%) | – | – | – | – | – | – | – | CCN(C)S(=O)(=O)Nc1ccc(F)c(Oc2ccc3ncn([C@H]4CCC5(CCN(C6CCC(c7ccc(NC8CCC(=O)NC8=O)cc7F)CC6)CC5)C4)c(=O)c3c2)c1C#N (single isomer, unassigned) [Compound 25] | – | ** (<90% and >50%)
3 | – | < 1000 | < 1000 | – | 1000 to 10000 | – | ** (<90% and >50%) | – | – | – | – | – | – | CCN(C)S(=O)(=O)Nc1ccc(F)c(Oc2ccc3ncn([C@@H]4CCC5(CCN(C6CCC(c7cc8c(cc7F)c(N7CCC(=O)NC7=O)nn8C)CC6)CC5)C4)c(=O)c3c2)c1C#N (single isomer, unassigned) [Compound 32] | – | *** (<=50%)
4 | – | < 1000 | < 1000 | – | < 1000 | *** (<=50%) | – | < 1000 | < 1000 | *** (<=50%) | *** (<=50%) | < 1000 | < 1000 | CCN(C)S(=O)(=O)Nc1ccc(F)c(Oc2ccc3ncn([C@H]4COC5(CCN(C6CCC(c7cc8c(cc7F)c(N7CCC(=O)NC7=O)nn8C)CC6O)CC5)C4)c(=O)c3c2)c1C#N (single isomer, unassigned) [Compound 45] | – | *** (<=50%)
